Reference: patent publication US20220008376A1, “INHIBITORS OF TYPE 3 SECRETION SYSTEM AND ANTIBIOTIC THERAPY” (priority 2018, published 2022)
Read-outs that look alike come from different tables or passages of the source.

Experiments:
[1] = test system: cytotoxicity of PAO1 to murine macrophages (J774A.1); test: Cytoplasmic lactate dehydrogenase (LDH) release assay, PAO1-infected macrophages; format: cell-based, mouse; conditions: for EC50: Mus musculus; for inhibition of Pseudomonas aeruginosa-induced cell lysis (LDH release), words: different concentrations, MOI 8, 5 hours
Source text: Cytoplasmic lactate dehydrogenase (LDH) release assay. […] LDH released into supernatant was detected by LDH detection kit (Beyotime, C0017) as instructed by the manufacturer.

PAO1 [2] = test: Survival study, murine model of acute pneumonia; format: in vivo, C57BL/6J mice; conditions: for mice died of infection within 48 h, first treatment 8 h after challenge: mock-treated 85%
Experimental: (§1) Animal studies. 6-week-old female C57BL/6J mice used in this study were acquired from the Experimental Animal Center of Xian Jiaotong University. All the animals were maintained in animal care facilities in the School of Life Science and Technology, and provided with food and water ad libitum. The animal studies were approved by the Committee on Animal Research and Ethics, Xi'an Jiaotong University.
For survival study, tanshinone inhibitors (100 μM, 1% DMSO, in 10 μL PBS) were administrated to the infected animals intranasally at the time of infection, or 8 h after infection, and every 12 hours till the death of the animal or the end of the experiment. PBS containing 1% DMSO was used as mock treatment.

[3] = test system: secretion of ExoS by PAO1; test: Inhibition of T3SS-mediated effector secretion (ExoS Western blot); format: cell-based, Pseudomonas aeruginosa; conditions: PAO1 under low-calcium conditions; for inhibition of ExoS secretion: 100 μM
Experimental: Inhibition of T3SS-mediated effector secretion. For T3SS induction, PAO1 overnight cultures were diluted to an OD at 600 nm of 0.3 in LB containing 5 mM EGTA and 20 mM MgCl2, in the presence of tanshinone inhibitors ([…]), followed by an incubation with mild agitation of additional 3-4 hours until the cultures reached an OD value of 1.5. NC group were cultured in LB and 2% DMSO, PC group were cultured in LB containing 5 mM EGTA, 20 mM MgCl2 and 2% DMSO. Culture supernatant was collected by centrifugation at 4000 g for 15 min at 4° C. and secreted proteins were concentrated by adding ice-cold trichloroacetic acid to a final concentration of 10% (V/V). Following a 2 hours' incubation on ice, the pellets were washed twice with cold acetone and suspended in an SDS-PAGE sample buffer (with 2-mercaptoethanol) according to the BCA protein assay protocol. Secreted and total proteins (supernatant and pelleted bacteria) were analyzed by immunoblotting with an anti-ExoS antibody (Agrisera, AS05056, at 1:4000 dilution) and corresponding HRP-conjugated secondary antibody. The blots were semi-quantified using ImageJ 1.51 k (from http://imagej.nih.gov/ij). The results were expressed as the mean±SD percentage of secreted ExoS out of total ExoS of three independent experiments.

PscE-PscG heterodimer [4] = target: T1, PscE-PscG heterodimer (Pseudomonas aeruginosa, UniProt P95435); format: binding; parameters: made in house; host or cells: total chemical synthesis (solid phase peptide synthesis and native chemical ligation), no expression host; conditions: FP competition with FAM-PscF69-85 for PscE-PscG
Experimental: Fluorescence polarization (FP) and FP-based competitive binding assays. All fluorescence polarization assays were done using black, low protein binding 96-well plates (Thermo Fisher Scientific) in a total volume of 100 μl per well of 10 mM Tris buffer containing 150 mM NaCl and 1 mM EDTA, pH 7.0, unless indicated otherwise. After a gentle mixing and incubation for 3 h, FP readings were taken at 470 nm (excitation) and 530 nm (emission) wavelengths on a Tecan Infinite M2000 fluorescence plate reader. Nonlinear regression analyses were performed to give rise to Kd and IC50 values as previously described.
For direct binding of PscF to PscG or PscE-PscG, equal volumes of FAM-PscF^69-85 (400 nM) and serially diluted PscG or PscE-PscG (0-64 μM) were mixed. For initial screening, 95 μl of FAM-PscF^69-85-PscE-PscG (100 nM) in the assay buffer was mixed with 5 μl of small molecule inhibitor in DMSO to a final molar concentration of 1, 10, 100, or 1000 μM. 5% DMSO and 6 M GuHCl in the final assay buffer were used as negative and positive controls, respectively. For secondary screening or competitive binding assays, 95 μl of FAM-PscF^69-85-PscE-PscG (100 nM) in the assay buffer was mixed with 5 μl of serially diluted PscF^69-85 or various tanshinone analogs (0-200 μM).
Target sequence in this assay (P95435 1-114): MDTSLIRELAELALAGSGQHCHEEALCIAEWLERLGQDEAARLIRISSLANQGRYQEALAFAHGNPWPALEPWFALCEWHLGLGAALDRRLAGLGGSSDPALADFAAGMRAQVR
Target sequence in this assay (Q9I317 whole entry, further chain): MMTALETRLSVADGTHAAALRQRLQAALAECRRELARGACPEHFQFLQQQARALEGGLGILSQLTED

[5] = test system: intracellular PAO1 in J774A.1 cells; conditions: different concentrations, gentamicin at 2 h post infection
Experimental: Quantification of bacterial internalization. 5×10^4 J774a cells were seeded into each well of a 24-well plate and grown for 24 h before infection. One hour before the infection, cell culture medium was changed into serum-free medium and PAO-1 from mid-exponential phase was added to the cells at a multiplicity of infection (MOI) of 8. In the presence of different concentration of tanshinone inhibitors (0-100 μM compound, 2% DMSO), bacteria/cells mixtures were incubated for 2 hours and washed, then treated with gentamicin-containing (50 μg/ml) medium for another 2 hours before being lysed for plating. Internalized bacteria were defined as the total number of intracellular bacteria in cells (extracellular bacteria were killed by gentamicin, a cell-impermeable antibiotic). Results were normalized against the intracellular bacteria number by PAO-1-infected cells with mock treatment (2% DMSO). Average results of three independent experiments are shown as mean±SD.

PAO1 [6] = test: Bacterial burden in bronchoalveolar lavage and lung histopathology, PAO1-infected mice; format: in vivo, C57BL/6J mice
Source text: as §1
C57BL/6J mice were lightly anesthetized with inhaled sevoflurane and infected by intranasal instillation of PAO1 (1×10^7 CFU in 20 μL PBS) after lightly anesthetized with inhaled sevoflurane. Tanshinone inhibitors were administrated to the animals along with bacterial inoculation (100 μM, 1% DMSO). PBS containing 1% DMSO was used as mock treatment. 18 hours after infection, animals were sacrificed and bronchoalveolar lavages were collected and plated to obtain the bacterial counts in the lavages. The lungs of sacrificed mice were then isolated and fixed in 10% buffered formalin, paraffin embedded and hematoxylin-eosin-stained for histopathological examination. Pathological scores of the tissues were assigned according to the degree of inflammation.

PscE-PscG heterodimer [7] = target: T1, PscE-PscG heterodimer; test: 15N-1H HSQC NMR of 15N-PscG-PscE with dHTSN1; format: binding; parameters: inferred from the Ni-NTA purification; made in house; host or cells: PscG: E. coli (15N MOPS medium); PscE: chemical synthesis; conditions: molar ratio 1:1:1
Experimental: PscG was uniformly labeled with ^15N MOPS medium containing 1 g/L ^15NH4Cl as the sole source and BME vitamins (Sigma, USA). Cells were harvested by centrifugation at 6000 g for 30 min, resuspended in a lysis buffer containing 6 M urea, and subjected to a 1-min sonication, followed by two-cycle homogenization at 4° C. The lysates were centrifuged at 20,000 rpm for 30 min, and the supernatant was loaded onto a 10 ml Ni-NTA agarose column (Qiagen, USA). The elute was concentrated to 10-12 ml under denaturation conditions, followed by purification on a Sep-Pak C18 column. Peak fractions containing ^15N-PscG were lyophilized. […] The mixtures were dialyzed against the same buffer overnight and then concentrated to ˜300 μl.
All NMR samples were prepared in an NMR buffer containing 20 mM sodium phosphate (pH 7.4), 100 mM NaCl, 0.1% NaN3, 10% D2O and 2 mM DTT. The final protein concentrations were approximately 26 μM and 47.8 μM for ^15N-PscG-PscE and ^15N-PscG-PscE-dHTSN1 complexes, respectively. All NMR spectra were collected at 25° C. on a Bruker Avance 700 MHz spectrometer equipped with a triple-resonance pulse-field gradient probe. ^15N-^1H HSQC NMR spectra were recorded in the echo-antiecho mode for quadrature detection. All datasets were acquired with 2048 complex points in t2 and 256 complex points in t1.
Target sequence in this assay (Q9I317 whole entry): as the sequence (Q9I317 whole entry, further chain) above
Target sequence in this assay (P95435 whole entry): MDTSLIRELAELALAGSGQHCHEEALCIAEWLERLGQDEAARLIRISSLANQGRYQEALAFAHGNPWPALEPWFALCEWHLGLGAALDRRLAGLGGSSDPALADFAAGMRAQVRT

[8] = target: T2, PscF^69-85-PscE-PscG complex (Pseudomonas aeruginosa, UniProt P95435); test: CD spectroscopy and thermal denaturation of the heterotrimer; conditions: for effect on helicity of the heterotrimeric complex: CD, 20 μM heterotrimer, 25° C., 10 mM phosphate buffer, pH 7.4
T2 construct: made in house; host or cells: total chemical synthesis (solid phase peptide synthesis and native chemical ligation), no expression host
T2 sequence (Q9I317 whole entry): as the sequence (Q9I317 whole entry, further chain) above
T2 sequence (P95435 2-115): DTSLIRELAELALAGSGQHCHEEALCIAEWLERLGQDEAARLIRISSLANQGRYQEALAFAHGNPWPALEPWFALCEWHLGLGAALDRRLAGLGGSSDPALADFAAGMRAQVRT
Experimental: Circular dichroism (CD) spectroscopy and thermal denaturation. […] Protein thermal denaturation was carried out in PBS using a JASCO circular dichroism spectrometer equipped with temperature controller. […] Under constant stirring, measurement was taken at one-degree interval between 25° C. and 90° C., at a heating rate of 1° C. per minute. After each 1-minute heating, the solution in the cuvette was waited for 20 s before signals were detected over a 16 s period. Heating and data acquisition were fully automated with the control software provided by JASCO. Data processing was performed as previously described.

[9] = J774.A1, read-out: EC50, LDH release normalized against PAO1 ΔpscC
[10] = J774.A1, normalized against mock-treated PAO1-infected cells, read-out: EC50, inhibition of PAO1 cytotoxicity to macrophages (LDH release)
[11] = first intranasal dose 8 h after PAO1

SMILES	EC50 [1, 9]	EC50 [1, 10]	inhibition of Pseudomonas aeruginosa-induced cell lysis (LDH release), words [1]	mice died of infection within 48 h, first treatment 8 h after challenge (PAO1 [2]; [11])	inhibition of ExoS secretion [3]	activity in FP competition assay (PscE-PscG heterodimer [4])	other results
Cc1cccc2c3c(ccc12)C(=O)C1=C(OC[C@H]1C)C3=O [dHTSN]	~3 µM	12.5 µM	inhibited Pseudomonas aeruginosa-induced cell lysis in a dose dependent manner	20%	more active than TSN1		
CC(Oc1ccc(Cl)cc1Cl)C(=O)NCc1ccc2c(c1)OCO2 (stereo not shown) [MBX-1641, reference compound]						no effect	inhibition of intracellular bacterial survival / proliferation of PAO1 in macrophages [5]: inhibited; bacterial burden in bronchoalveolar lavage (PAO1 [6]; single dose 100 μM at time of infection, sampled 18 h post infection): reduced bacterial burden; inhibition of ExoS secretion (MBX-1641) ([3]; 6.25 μM): inhibited
Cc1cccc2c3c(ccc12)C1=C(C(=O)C3=O)[C@@H](C)CO1 [dHTSN1, dihydrotanshinone 1]	~3 µM	25 µM	inhibited Pseudomonas aeruginosa-induced cell lysis in a dose dependent manner	5%	more active than TSN1		infected mice survived beyond 96 h, first treatment 8 h after challenge (PAO1 [2]; [11]): 80%; lung inflammation, H&E staining (PAO1 [6]; 18 h post infection): significantly reduced inflammation; interaction with 15N-PscG-PscE complex by NMR (PscE-PscG heterodimer [7]): relatively strong interactions
C[C@H]1COC2=C1C(=O)C(=O)c1c2ccc2c1CCCC2(C)C [crpTSN, cryptotanshinone, reference compound]			inactive		no inhibitory activity	inactive	
Cc1coc2c1C(=O)C(=O)c1c-2ccc2c1CCCC2(C)C [tanshinone 2A]						inactive	
Cc1coc2c1C(=O)C(=O)c1c-2ccc2c(C)cccc12 [TSN1, tanshinone 1]			inhibited Pseudomonas aeruginosa-induced cell lysis in a dose dependent manner	40%			effect on helicity of the heterotrimeric complex [8]: reduced; effect on helicity of the heterotrimeric complex ([8]; listed as tanshinone 1): progressively decreases; effect on thermal stability of the heterotrimeric complex ([8]; added to preformed heterotrimer PscE-PscG-PscF^69-85): reduced; Tm of PscF^69-85-PscE-PscG complex in presence of compound ([8]; complex 20 μM in PBS, 300 μM tanshinone 1, CD at 222 nm, 54.8 in absence): 52.3 °C; protection of infected mice, treatment from time of infection (PAO1 [2]; 100 μM intranasal at time of infection and every 12 h): significantly protective
